Target: T1, chimeric human H3 receptor (Homo sapiens, UniProt Q9Y5N1)
T1 construct: rat Galpha-i2 (Gnai2, rat); made in house; host or cells: Sf9 insect cells (baculovirus); P2 membranes
Test: Chimeric human H3 receptor screening GTP binding assay (inhibition of histamine-stimulated GTP-gamma35S binding, Example 8)
Assay type: biochemical
Details: 1 h; assay of Example 8; symbol "!" in column headed Ki; read-out: percent inhibition of agonist-induced GTP-gammaS binding to H3
Outline: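 Sf9 membranes co-expressing chimeric human H3 receptor and heterotrimeric G-protein (35 μg protein) incubated 60 min at room temperature with 4 μM compound, 1 μM histamine and 125 pM GTP-gamma35S in pH 7.4 buffer with 10 μM GDP. Filter-bound radioactivity, nonspecific (10 μM GTP-gammaS) subtracted, reported as % inhibition of histamine signal.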

T1 sequence (Q9Y5N1 with tags, fused parts or gaps): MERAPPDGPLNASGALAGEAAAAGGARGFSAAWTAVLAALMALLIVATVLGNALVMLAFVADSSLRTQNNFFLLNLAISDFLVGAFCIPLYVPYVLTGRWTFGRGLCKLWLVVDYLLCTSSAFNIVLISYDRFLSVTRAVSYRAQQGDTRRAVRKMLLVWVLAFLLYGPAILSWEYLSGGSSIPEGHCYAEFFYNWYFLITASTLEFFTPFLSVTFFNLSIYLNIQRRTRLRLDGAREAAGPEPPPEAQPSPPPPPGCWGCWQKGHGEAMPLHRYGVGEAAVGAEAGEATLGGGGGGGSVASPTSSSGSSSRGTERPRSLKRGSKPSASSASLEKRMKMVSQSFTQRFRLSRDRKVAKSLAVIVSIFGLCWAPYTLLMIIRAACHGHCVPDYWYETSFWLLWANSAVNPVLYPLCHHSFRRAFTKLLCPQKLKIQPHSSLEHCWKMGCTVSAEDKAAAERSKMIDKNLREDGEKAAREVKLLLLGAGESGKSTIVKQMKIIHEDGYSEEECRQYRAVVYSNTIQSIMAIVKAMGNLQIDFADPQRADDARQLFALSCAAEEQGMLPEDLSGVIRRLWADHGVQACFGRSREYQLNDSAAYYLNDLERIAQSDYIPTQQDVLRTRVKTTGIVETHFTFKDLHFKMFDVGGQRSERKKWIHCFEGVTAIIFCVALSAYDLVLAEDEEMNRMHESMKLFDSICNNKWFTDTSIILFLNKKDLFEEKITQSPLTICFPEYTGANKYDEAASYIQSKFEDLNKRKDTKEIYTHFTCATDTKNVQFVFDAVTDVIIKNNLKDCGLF

Inhibition at 4 µM, ≥ 90%:
Fc1ccccc1CN1CCc2cnc(N3CCN(C4CCC4)CC3)nc2CC1 [Compound 230, 2-(4-cyclobutylpiperazin-1-yl)-7-(2-fluorobenzyl)-6,7,8,9-tetrahydro-5H-pyrimido[4,5-d]azepine]
Fc1cccc(CN2CCc3cnc(N4CCN(C5CCC5)CC4)nc3CC2)c1 [Compound 231, 2-(4-cyclobutylpiperazin-1-yl)-7-(3-fluorobenzyl)-6,7,8,9-tetrahydro-5H-pyrimido[4,5-d]azepine]
Fc1ccc(CN2CCc3cnc(N4CCN(C5CCC5)CC4)nc3CC2)cc1 [Compound 232, 2-(4-cyclobutylpiperazin-1-yl)-7-(4-fluorobenzyl)-6,7,8,9-tetrahydro-5H-pyrimido[4,5-d]azepine]
Cc1cccc(CN2CCc3cnc(N4CCN(C5CCC5)CC4)nc3CC2)c1 [Compound 233, 2-(4-cyclobutylpiperazin-1-yl)-7-(3-methylbenzyl)-6,7,8,9-tetrahydro-5H-pyrimido[4,5-d]azepine]
Cc1ccc(CN2CCc3cnc(N4CCN(C5CCC5)CC4)nc3CC2)cc1 [Compound 234, 2-(4-cyclobutylpiperazin-1-yl)-7-(4-methylbenzyl)-6,7,8,9-tetrahydro-5H-pyrimido[4,5-d]azepine]
Cn1ccnc1CN1CCc2cnc(N3CCN(C4CCC4)CC3)nc2CC1 [Compound 235, 2-(4-cyclobutylpiperazin-1-yl)-7-[(1-methyl-1H-imidazol-2-yl)methyl]-6,7,8,9-tetrahydro-5H-pyrimido[4,5-d]azepine]
c1ccc2c(CN3CCc4cnc(N5CCN(C6CCC6)CC5)nc4CC3)ccnc2c1 [Compound 236, 2-(4-cyclobutylpiperazin-1-yl)-7-(quinolin-4-ylmethyl)-6,7,8,9-tetrahydro-5H-pyrimido[4,5-d]azepine]
c1ccc2ncc(CN3CCc4cnc(N5CCN(C6CCC6)CC5)nc4CC3)cc2c1 [Compound 237, 2-(4-cyclobutylpiperazin-1-yl)-7-(quinolin-3-ylmethyl)-6,7,8,9-tetrahydro-5H-pyrimido[4,5-d]azepine]
Cc1cccc(CN2CCc3cnc(N4CCN(C5CCC5)CC4)nc3CC2)n1 [Compound 238, 2-(4-cyclobutylpiperazin-1-yl)-7-[(6-methylpyridin-2-yl)methyl]-6,7,8,9-tetrahydro-5H-pyrimido[4,5-d]azepine]
c1cncc(CN2CCc3cnc(N4CCN(C5CCC5)CC4)nc3CC2)c1 [Compound 239, 2-(4-cyclobutylpiperazin-1-yl)-7-(pyridin-3-ylmethyl)-6,7,8,9-tetrahydro-5H-pyrimido[4,5-d]azepine]
c1cc(N2CCOCC2)ncc1CN1CCc2cnc(N3CCN(C4CCC4)CC3)nc2CC1 [Compound 240, 2-(4-cyclobutylpiperazin-1-yl)-7-[(6-morpholin-4-ylpyridin-3-yl)methyl]-6,7,8,9-tetrahydro-5H-pyrimido[4,5-d]azepine]
Cc1cc(CN2CCc3cnc(N4CCN(C5CCC5)CC4)nc3CC2)n(C)n1 [Compound 241, 2-(4-cyclobutylpiperazin-1-yl)-7-[(1,3-dimethyl-1H-pyrazol-5-yl)methyl]-6,7,8,9-tetrahydro-5H-pyrimido[4,5-d]azepine]
COc1ccccc1CN1CCc2cnc(N3CCN(C4CCC4)CC3)nc2CC1 [Compound 242, 2-(4-cyclobutylpiperazin-1-yl)-7-(2-methoxybenzyl)-6,7,8,9-tetrahydro-5H-pyrimido[4,5-d]azepine]
COc1ccc(CN2CCc3cnc(N4CCN(C5CCC5)CC4)nc3CC2)c(OC)c1 [Compound 243, 2-(4-cyclobutylpiperazin-1-yl)-7-(2,4-dimethoxybenzyl)-6,7,8,9-tetrahydro-5H-pyrimido[4,5-d]azepine]
CC(C)c1ccc(CN2CCc3cnc(N4CCN(C5CCC5)CC4)nc3CC2)cc1 [Compound 244, 2-(4-cyclobutylpiperazin-1-yl)-7-(4-isopropylbenzyl)-6,7,8,9-tetrahydro-5H-pyrimido[4,5-d]azepine]
CCN1CCc2cnc(N3CCN(C4CCC4)CC3)nc2CC1 [Compound 245, 2-(4-cyclobutylpiperazin-1-yl)-7-ethyl-6,7,8,9-tetrahydro-5H-pyrimido[4,5-d]azepine]
CC(C)CCN1CCc2cnc(N3CCN(C4CCC4)CC3)nc2CC1 [Compound 246, 2-(4-cyclobutylpiperazin-1-yl)-7-(3-methylbutyl)-6,7,8,9-tetrahydro-5H-pyrimido[4,5-d]azepine]
CCCN1CCc2cnc(N3CCN(C4CCC4)CC3)nc2CC1 [Compound 247, 2-(4-cyclobutylpiperazin-1-yl)-7-propyl-6,7,8,9-tetrahydro-5H-pyrimido[4,5-d]azepine]
CCCCN1CCc2cnc(N3CCN(C4CCC4)CC3)nc2CC1 [Compound 248, 7-butyl-2-(4-cyclobutylpiperazin-1-yl)-6,7,8,9-tetrahydro-5H-pyrimido[4,5-d]azepine]
CCCCCN1CCc2cnc(N3CCN(C4CCC4)CC3)nc2CC1 [Compound 249, 2-(4-cyclobutylpiperazin-1-yl)-7-pentyl-6,7,8,9-tetrahydro-5H-pyrimido[4,5-d]azepine]
CCCCCCN1CCc2cnc(N3CCN(C4CCC4)CC3)nc2CC1 [Compound 250, 2-(4-cyclobutylpiperazin-1-yl)-7-hexyl-6,7,8,9-tetrahydro-5H-pyrimido[4,5-d]azepine]
CC(C)CN1CCc2cnc(N3CCN(C4CCC4)CC3)nc2CC1 [Compound 251, 2-(4-cyclobutylpiperazin-1-yl)-7-isobutyl-6,7,8,9-tetrahydro-5H-pyrimido[4,5-d]azepine]
CCC(C)CN1CCc2cnc(N3CCN(C4CCC4)CC3)nc2CC1 (stereo not shown) [Compound 252, 2-(4-cyclobutylpiperazin-1-yl)-7-(2-methylbutyl)-6,7,8,9-tetrahydro-5H-pyrimido[4,5-d]azepine]
CCC(CC)CN1CCc2cnc(N3CCN(C4CCC4)CC3)nc2CC1 [Compound 253, 2-(4-cyclobutylpiperazin-1-yl)-7-(2-ethylbutyl)-6,7,8,9-tetrahydro-5H-pyrimido[4,5-d]azepine]
c1nc(N2CCN(C3CCC3)CC2)nc2c1CCN(CC1CC1)CC2 [Compound 254, 2-(4-cyclobutylpiperazin-1-yl)-7-(cyclopropylmethyl)-6,7,8,9-tetrahydro-5H-pyrimido[4,5-d]azepine]
CCCC(C)CN1CCc2cnc(N3CCN(C4CCC4)CC3)nc2CC1 (stereo not shown) [Compound 255, 2-(4-cyclobutylpiperazin-1-yl)-7-(2-methylpentyl)-6,7,8,9-tetrahydro-5H-pyrimido[4,5-d]azepine]
c1nc(N2CCN(C3CCC3)CC2)nc2c1CCN(CC1CCOC1)CC2 (stereo not shown) [Compound 256, 2-(4-cyclobutylpiperazin-1-yl)-7-(tetrahydrofuran-3-ylmethyl)-6,7,8,9-tetrahydro-5H-pyrimido[4,5-d]azepine]
Cc1ccc(CN2CCc3cnc(N4CCN(C5CCC5)CC4)nc3CC2)cc1C [Compound 257, 2-(4-cyclobutylpiperazin-1-yl)-7-(3,4-dimethylbenzyl)-6,7,8,9-tetrahydro-5H-pyrimido[4,5-d]azepine]
c1cc2c(cc1CN1CCc3cnc(N4CCN(C5CCC5)CC4)nc3CC1)OCCO2 [Compound 258, 2-(4-cyclobutylpiperazin-1-yl)-7-(2,3-dihydro-1,4-benzodioxin-6-ylmethyl)-6,7,8,9-tetrahydro-5H-pyrimido[4,5-d]azepine]
c1ccc2nc(CN3CCc4cnc(N5CCN(C6CCC6)CC5)nc4CC3)ccc2c1 [Compound 259, 2-(4-cyclobutylpiperazin-1-yl)-7-(quinolin-2-ylmethyl)-6,7,8,9-tetrahydro-5H-pyrimido[4,5-d]azepine]
COc1cccc(CN2CCc3cnc(N4CCN(C5CCC5)CC4)nc3CC2)c1OC [Compound 260, 2-(4-cyclobutylpiperazin-1-yl)-7-(2,3-dimethoxybenzyl)-6,7,8,9-tetrahydro-5H-pyrimido[4,5-d]azepine]
COc1ccc(OC)c(CN2CCc3cnc(N4CCN(C5CCC5)CC4)nc3CC2)c1 [Compound 261, 2-(4-cyclobutylpiperazin-1-yl)-7-(2,5-dimethoxybenzyl)-6,7,8,9-tetrahydro-5H-pyrimido[4,5-d]azepine]
CCn1cncc1CN1CCc2cnc(N3CCN(C4CCC4)CC3)nc2CC1 [Compound 262, 2-(4-cyclobutylpiperazin-1-yl)-7-[(1-ethyl-1H-imidazol-5-yl)methyl]-6,7,8,9-tetrahydro-5H-pyrimido[4,5-d]azepine]
c1cc(N2CCCC2)ncc1CN1CCc2cnc(N3CCN(C4CCC4)CC3)nc2CC1 [Compound 263, 2-(4-cyclobutylpiperazin-1-yl)-7-[(6-pyrrolidin-1-ylpyridin-3-yl)methyl]-6,7,8,9-tetrahydro-5H-pyrimido[4,5-d]azepine]
